Reference: patent US10556943B2, “HLA-DR binding peptides and their uses” (priority 2007, dated 2020)

Key:
purified HLA DRB1*0901 = target: T1, purified HLA DRB1*0901 (Homo sapiens, UniProt P01903+P01911, A100R/A103E/D57H/D86V/F55Y/F60I/F76Y/I96F/K127E/L162R/M171V/P40D/Q125H/Q99R/R33Q/R42F/S133A/S66N/T210M/V115G/W38K/Y107V/Y59G/Y89S); test: HLA-DR radioligand binding inhibition assay, DRB1*0901
T1 construct: MHC molecules utilized were purified from EBV transformed homozygous cell lines or single MHC allele transfected 721.221, C1R, or fibroblast lines; made in house; host or cells: EBV transformed homozygous cell lines or single MHC allele transfected 721.221, C1R, or fibroblast lines
Protocol: (§1) Fifteen distinct HLA-DR molecules were used in quantitative assays to measure the binding of peptides to solubilized HLA-DR molecules. […] Briefly, columns of inactivated Sepharose CL4B and Protein A Sepharose were used as pre-columns. HLA-DR molecules were captured by passage of lysates over LB3.1 monoclonal antibody (anti-HLA-DRA) columns. Antibody columns were washed with 10 mM Tris-HCL, pH8.0 with 1% (v/v) NP-40, followed by PBS containing 0.4% (w/v) n-octylglucoside.
(§2) Briefly, 1-10 nM of radiolabeled peptide was co-incubated for 2 days at either room temperature or 37° C. with 1 μM to 1 nM purified HLA-DR molecules in the presence of a cocktail of protease inhibitors. Assays were performed at various pH conditions, ranging from pH 4 to pH 7. […] After incubation, the percentage of HLA-DR-bound radioactivity is determined by capturing HLA-DR/peptide complexes on Optiplates (Packard Instruments, Meriden, Conn.) coated with the LB3.1 antibody and determining bound counts per minute using the TopCount microscintillation counter (Packard Instruments).

purified HLA DRB1*1201 = target: T2, purified HLA DRB1*1201 (Homo sapiens, UniProt P01903+P01911, A100R/A169T/D57E/D86V/F55L/H45Y/K41T/L162R/M171V/P40S/Q125H/Q178H/Q39Y/Q99D/R42G/S66L/T262R/V114A/V67L/W38E/Y59H/Y61H/Y89S); test: HLA-DR radioligand binding inhibition assay, DRB1*1201; conditions: column 5 of second part of Table I
T2 construct: MHC molecules utilized were purified from EBV transformed homozygous cell lines or single MHC allele transfected 721.221, C1R, or fibroblast lines; made in house; host or cells: EBV transformed homozygous cell lines or single MHC allele transfected 721.221, C1R, or fibroblast lines
Protocol: as §1, with “n-octylglucoside. […] The pH was reduced to 8.0 and the eluates were concentrated by centrifugation in Centriprep 30 concentrators at 2000 rpm (Amicon, Beverly, Mass.).” for “n-octylglucoside.”
as §2, with “Instruments). […] Competitor peptides are tested in 2-4 complete, independent experiments, at concentrations ranging from 30 μg/mL to 300 pg/mL.” for “Instruments).”

purified HLA DRB1*1302 = target: T3, purified HLA DRB1*1302 (Homo sapiens, UniProt P01903+P01911, A100E/A169T/K41T/L162R/M171V/P40S/Q125H/Q178H/Q39Y/Q99D/R42S/S66N/T262R/V115G/W38E/Y61H); test: HLA-DR radioligand binding inhibition assay, DRB1*1302; conditions: column 6 of second part of Table I
T3 construct: MHC molecules utilized were purified from EBV transformed homozygous cell lines or single MHC allele transfected 721.221, C1R, or fibroblast lines; made in house; host or cells: EBV transformed homozygous cell lines or single MHC allele transfected 721.221, C1R, or fibroblast lines
T3 sequence (P01903 26-254, other chains not shown): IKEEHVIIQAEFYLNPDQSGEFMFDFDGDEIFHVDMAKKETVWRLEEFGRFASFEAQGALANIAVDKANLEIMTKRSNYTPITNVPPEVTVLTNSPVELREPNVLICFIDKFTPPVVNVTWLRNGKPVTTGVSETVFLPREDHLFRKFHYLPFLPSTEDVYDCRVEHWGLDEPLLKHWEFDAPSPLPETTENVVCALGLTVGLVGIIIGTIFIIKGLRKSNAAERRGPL
Protocol: as §1, §2

Measured: IC50

CSCC[C@H](NC(=O)[C@H](CCCNC(=N)N)NC(=O)[C@H](CO)NC(=O)[C@H](Cc1ccccc1)NC(=O)[C@H](CCC(=O)O)NC(=O)[C@H](CO)NC(=O)[C@@H](NC(=O)[C@H](CC(C)C)NC(=O)[C@H](CCC(=O)O)NC(=O)[C@H](CCCNC(=N)N)NC(=O)[C@@H](N)Cc1ccccc1)C(C)C)C(=O)N[C@@H](C)C(=O)N[C@@H](CCCNC(=N)N)C(=O)N[C@@H](CC(=O)O)C(=O)N1CCC[C@H]1C(=O)O [Peptide 9019.0096]
> 20 µM: all assays above
